Results taken from patent publication US12540131B2 (Merck Sharp & Dohme LLC, priority 2019, dated 2026).

What follows are compounds tested against GST tagged truncated human mutant G2019S LRRK2 (Homo sapiens (Human), UniProt Q5S007, G2019S) (assay: LRRK2 Km ATP LanthaScreen Assay). Conditions: G2019S LRRK2, 134 μM ATP (Km ATP), mean values.
GST tagged truncated human mutant G2019S LRRK2, sequence (Q5S007 970-2527 G2019S): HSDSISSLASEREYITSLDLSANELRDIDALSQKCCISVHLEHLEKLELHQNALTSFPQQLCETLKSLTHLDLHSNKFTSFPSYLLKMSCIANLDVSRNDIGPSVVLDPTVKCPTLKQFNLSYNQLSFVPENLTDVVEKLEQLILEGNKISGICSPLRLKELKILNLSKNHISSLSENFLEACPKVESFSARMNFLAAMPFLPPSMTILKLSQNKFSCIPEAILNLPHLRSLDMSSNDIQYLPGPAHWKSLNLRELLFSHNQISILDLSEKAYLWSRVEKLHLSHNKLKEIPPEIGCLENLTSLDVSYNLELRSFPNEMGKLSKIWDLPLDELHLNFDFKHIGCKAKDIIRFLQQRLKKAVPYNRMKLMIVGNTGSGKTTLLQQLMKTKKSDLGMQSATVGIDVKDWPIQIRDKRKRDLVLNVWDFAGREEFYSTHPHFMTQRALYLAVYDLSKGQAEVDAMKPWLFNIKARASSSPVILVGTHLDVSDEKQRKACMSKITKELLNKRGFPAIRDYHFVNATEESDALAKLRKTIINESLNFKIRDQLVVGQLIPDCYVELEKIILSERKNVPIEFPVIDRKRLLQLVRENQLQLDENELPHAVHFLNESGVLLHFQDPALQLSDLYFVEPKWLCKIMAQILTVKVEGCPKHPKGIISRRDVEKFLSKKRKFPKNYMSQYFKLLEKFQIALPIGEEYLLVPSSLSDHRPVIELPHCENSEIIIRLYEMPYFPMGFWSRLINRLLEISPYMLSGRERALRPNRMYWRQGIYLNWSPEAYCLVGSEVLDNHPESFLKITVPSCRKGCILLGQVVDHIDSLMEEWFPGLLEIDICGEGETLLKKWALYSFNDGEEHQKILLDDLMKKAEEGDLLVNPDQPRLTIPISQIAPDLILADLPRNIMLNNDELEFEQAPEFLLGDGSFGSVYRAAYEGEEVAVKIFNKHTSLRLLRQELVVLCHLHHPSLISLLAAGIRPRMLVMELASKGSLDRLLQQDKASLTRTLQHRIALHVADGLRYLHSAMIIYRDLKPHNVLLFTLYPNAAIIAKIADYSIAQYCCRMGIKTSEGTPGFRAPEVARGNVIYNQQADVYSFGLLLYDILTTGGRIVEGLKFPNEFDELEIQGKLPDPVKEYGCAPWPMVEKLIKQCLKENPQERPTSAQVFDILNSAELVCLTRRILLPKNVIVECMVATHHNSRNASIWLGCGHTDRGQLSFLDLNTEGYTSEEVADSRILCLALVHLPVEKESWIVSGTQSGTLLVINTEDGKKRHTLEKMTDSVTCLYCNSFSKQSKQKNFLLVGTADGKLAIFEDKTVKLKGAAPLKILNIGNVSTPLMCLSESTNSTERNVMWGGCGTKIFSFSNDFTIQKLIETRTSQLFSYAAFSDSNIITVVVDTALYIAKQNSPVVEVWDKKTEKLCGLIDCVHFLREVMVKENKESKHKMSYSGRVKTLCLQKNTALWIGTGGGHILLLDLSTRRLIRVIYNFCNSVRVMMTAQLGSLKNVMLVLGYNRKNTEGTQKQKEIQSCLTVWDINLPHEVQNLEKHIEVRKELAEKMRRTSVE
Format: biochemical
Procedure, shortened: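 Enzyme (GST-tagged, truncated) was preincubated with compound for 15 min at RT in 50 mM Tris pH 8.5, 10 mM MgCl2, 0.01% Brij-35, 1 mM EGTA, 2 mM DTT and 0.05 mM orthovanadate. Fluorescein-LRRKtide and 134 μM ATP (Km) were then added for 90 min. EDTA and Tb-anti-pERM antibody stopped the reaction; the TR-FRET 520/495 ratio gave 4-parameter IC50s, reported as mean pIC50.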
For `CCN1CC[C@@H](c2cc3nc(Nc4cnn(CC(C)(C)O)c4Cl)ncc3cc2Cl)[C@H](F)C1` (single isomer, unassigned) [Ex-4.4, (3S,4S) or (3R,4R) 1-(5-chloro-4-((6-chloro-7-(1-ethyl-3-fluoropiperidin-4-yl)quinazolin-2-yl)amino)-1H-pyrazol-1-yl)-2-methylpropan-2-ol], the “LRRK2 pIC50” value was 8.88. For `O[C@@H]1COCC1N1CC[C@H](c2cc3nc(Nc4cnn(C5CC5(F)F)c4Cl)ncc3cc2Cl)[C@@H](F)C1` (single isomer, unassigned) [Ex-4.9, (R)(3S,4S)(3S,4S) or (R)(3S,4S)(3R,4R) or (R)(3R,4R)(3S,4S) or (R)(3R,4R)(3R,4R) or (S)(3S,4S)(3S,4S) or (S)(3S,4S)(3R,4R) or (S)(3R,4R)(3S,4S) or (S)(3R,4R)(3R,4R) 4-(4-(6-chloro-2-((5-chloro-1-(2,2-difluorocyclopropyl)-1H-pyrazol-4-yl)amino)quinazolin-7-yl)-3-fluoropiperidin-1-yl)tetrahydrofuran-3-ol], the “LRRK2 pIC50” value was greater than 9.20. `CC1(N2CC[C@H](c3cc4nc(Nc5cnn(C6CC6(F)F)c5Cl)ncc4cc3Cl)[C@@H](F)C2)COC[C@@H]1O` (single isomer, unassigned) [Ex-4.10, (R)(3S,4S)(3S,4S) or (R)(3S,4S)(3R,4R) or (R)(3R,4R)(3S,4S) or (R)(3R,4R)(3R,4R) or (S)(3S,4S)(3S,4S) or (S)(3S,4S)(3R,4R) or (S)(3R,4R)(3S,4S) or (S)(3R,4R)(3R,4R) 4-(6-chloro-2-((5-chloro-1-(2,2-difluorocyclopropyl)-1H-pyrazol-4-yl)amino)quinazolin-7-yl)-3-fluoropiperidin-1-yl)-4-methyltetrahydrofuran-3-ol] was tested, and the “LRRK2 pIC50” value was greater than 9.20. In the case of `CC1(N2CC[C@H](c3cc4nc(Nc5cnn(C6CC6(F)F)c5Cl)ncc4cc3Cl)[C@@H](F)C2)COC[C@@H]1O` (single isomer, unassigned) [Ex-4.11, (R)(3S,4S)(3S,4S) or (R)(3S,4S)(3R,4R) or (R)(3R,4R)(3S,4S) or (R)(3R,4R)(3R,4R) or (S)(3S,4S)(3S,4S) or (S)(3S,4S)(3R,4R) or (S)(3R,4R)(3S,4S) or (S)(3R,4R)(3R,4R) 4-(6-chloro-2-((5-chloro-1-(2,2-difluorocyclopropyl)-1H-pyrazol-4-yl)amino)quinazolin-7-yl)-3-fluoropiperidin-1-yl)-4-methyltetrahydrofuran-3-ol], the “LRRK2 pIC50” value is reported as 8.73. With `CN1CC[C@@H](c2cc3nc(Nc4cnn(CC(C)(C)O)c4Cl)ncc3cc2Cl)[C@H](F)C1` (single isomer, unassigned) [Ex-4.22, (3S,4S) or (3R,4R) 1-(5-chloro-4-{[6-chloro-7-(3-fluoro-1-methylpiperidin-4-yl)quinazolin-2-yl]amino}-1H-pyrazol-1-yl)-2-methylpropan-2-ol] the “LRRK2 pIC50” value was greater than 9.20. With `CN1CC[C@H](c2cc3nc(Nc4cnn(CC(C)(C)O)c4Cl)ncc3cc2Cl)[C@@H](F)C1` (single isomer, unassigned) [Ex-4.23, (3S,4S) or (3R,4R) 1-(5-chloro-4-{[6-chloro-7-(3-fluoro-1-methylpiperidin-4-yl)quinazolin-2-yl]amino}-1H-pyrazol-1-yl)-2-methylpropan-2-ol] the “LRRK2 pIC50” value was 9.08. With `CC1(n2ncc(Nc3ncc4cc(Cl)c([C@@H]5CCN(C6COC6)C[C@H]5F)cc4n3)c2Cl)CC1` (single isomer, unassigned) [Ex-4.27, (3S,4S) or (3R,4R) 6-chloro-N-[5-chloro-1-(1-methylcyclopropyl)-1H-pyrazol-4-yl]-7-[3-fluoro-1-(oxetan-3-yl)piperidin-4-yl]quinazolin-2-amine] the “LRRK2 pIC50” value was greater than 9.20. In the case of `CC1(n2ncc(Nc3ncc4cc(Cl)c([C@H]5CCN(C6COC6)C[C@@H]5F)cc4n3)c2Cl)CC1` (single isomer, unassigned) [Ex-4.28, (3S,4S) or (3R,4R) 6-chloro-N-[5-chloro-1-(1-methylcyclopropyl)-1H-pyrazol-4-yl]-7-[3-fluoro-1-(oxetan-3-yl)piperidin-4-yl]quinazolin-2-amine], the “LRRK2 pIC50” value is reported as greater than 9.20. In the case of `CN1CC[C@@H](c2cc3nc(Nc4cnn(C5(C)CC5)c4Cl)ncc3cc2Cl)[C@H](O)C1` (single isomer, unassigned) [Ex-4.29, (3S,4S) or (3R,4R) 4-(6-chloro-2-{[5-chloro-1-(1-methylcyclopropyl)-1H-pyrazol-4-yl]amino}quinazolin-7-yl)-1-methylpiperidin-3-ol], the “LRRK2 pIC50” value is reported as 8.07. For `CN1CC[C@H](c2cc3nc(Nc4cnn(C5(C)CC5)c4Cl)ncc3cc2Cl)[C@@H](O)C1` (single isomer, unassigned) [Ex-4.30, (3S,4S) or (3R,4R) 4-(6-chloro-2-{[5-chloro-1-(1-methylcyclopropyl)-1H-pyrazol-4-yl]amino}quinazolin-7-yl)-1-methylpiperidin-3-ol], the “LRRK2 pIC50” value was 7.32. For `F[C@@H]1CN(C2COC2)CC[C@H]1c1cc2nc(Nc3cnn(C4CC4)c3Cl)ncc2cc1Cl` (single isomer, unassigned) [Ex-4.34, (3S,4S) or (3R,4R) 6-chloro-N-(5-chloro-1-cyclopropyl-1H-pyrazol-4-yl)-7-[3-fluoro-1-(oxetan-3-yl)piperidin-4-yl]quinazolin-2-amine], the “LRRK2 pIC50” value was 9.12. For `F[C@H]1CN(C2COC2)CC[C@@H]1c1cc2nc(Nc3cnn(C4CC4)c3Cl)ncc2cc1Cl` (single isomer, unassigned) [Ex-4.35, (3S,4S) or (3R,4R) 6-chloro-N-(5-chloro-1-cyclopropyl-1H-pyrazol-4-yl)-7-[3-fluoro-1-(oxetan-3-yl)piperidin-4-yl]quinazolin-2-amine], the “LRRK2 pIC50” value was greater than 9.20. In the case of `FC(F)Cn1ncc(Nc2ncc3cc(Cl)c([C@@H]4CCN(C5COC5)C[C@H]4F)cc3n2)c1Cl` (single isomer, unassigned) [Ex-4.37, (3S,4S) or (3R,4R) 6-chloro-N-[5-chloro-1-(2,2-difluoroethyl)-1H-pyrazol-4-yl]-7-[3-fluoro-1-(oxetan-3-yl)piperidin-4-yl]quinazolin-2-amine], the “LRRK2 pIC50” value is reported as 9.15. With `FC(F)Cn1ncc(Nc2ncc3cc(Cl)c([C@H]4CCN(C5COC5)C[C@@H]4F)cc3n2)c1Cl` (single isomer, unassigned) [Ex-4.38, (3S,4S) or (3R,4R) 6-chloro-N-[5-chloro-1-(2,2-difluoroethyl)-1H-pyrazol-4-yl]-7-[3-fluoro-1-(oxetan-3-yl)piperidin-4-yl]quinazolin-2-amine] the “LRRK2 pIC50” value was 9.11. `CN1CC[C@@H](c2cc3nc(Nc4cnn(C5CC5)c4Cl)ncc3cc2Cl)[C@H](F)C1` (single isomer, unassigned) [Ex-4.39, (3S,4S) or (3R,4R) 6-chloro-N-(5-chloro-1-cyclopropyl-1H-pyrazol-4-yl)-7-(3-fluoro-1-methylpiperidin-4-yl)quinazolin-2-amine] was tested, and the “LRRK2 pIC50” value was greater than 9.20. For `CN1CC[C@H](c2cc3nc(Nc4cnn(C5CC5)c4Cl)ncc3cc2Cl)[C@@H](F)C1` (single isomer, unassigned) [Ex-4.40, (3S,4S) or (3R,4R) 6-chloro-N-(5-chloro-1-cyclopropyl-1H-pyrazol-4-yl)-7-(3-fluoro-1-methylpiperidin-4-yl)quinazolin-2-amine], the “LRRK2 pIC50” value was greater than 9.20.

Same assay, conditions: G2019S LRRK2, 134 μM ATP (Km ATP), mean values; read-out: LRRK2 pIC50 (converted)
Compound `F[C@@H]1CNCC[C@H]1c1cc2nc(Nc3cnn(C4CC4)c3Cl)ncc2cc1Cl` (single isomer, unassigned) [Ex-4.2, (3S,4S) or (3R,4R) 6-chloro-N-(5-chloro-1-cyclopropyl-1H-pyrazol-4-yl)-7-(3-fluoropiperidin-4-yl)quinazolin-2-amine] has an IC50 of less than 0.631 nM. `CCN1CC[C@@H](c2cc3nc(Nc4cnn(CC(C)(C)O)c4Cl)ncc3cc2Cl)[C@H](F)C1` (single isomer, unassigned) [Ex-4.5, (3S,4S) or (3R,4R) 1-(5-chloro-4-((6-chloro-7-(1-ethyl-3-fluoropiperidin-4-yl)quinazolin-2-yl)amino)-1H-pyrazol-1-yl)-2-methylpropan-2-ol] gave an IC50 of 1.62 nM. In the case of `Cc1c(Nc2ncc3cc(Cl)c(C4CCN(CC(O)C(F)(F)F)CC4)cc3n2)cnn1C1CC1` (single isomer, unassigned) [Ex-4.12, (R) or (S) 3-(4-(6-chloro-2-((1-cyclopropyl-5-methyl-1H-pyrazol-4-yl)amino)quinazolin-7-yl)piperidin-1-yl)-1,1,1-trifluoropropan-2-ol], the IC50 is reported as less than 0.631 nM. Compound `CC1(n2ncc(Nc3ncc4cc(Cl)c(C5CCN(C6COC6)C5)cc4n3)c2Cl)CC1` (single isomer, unassigned) [Ex-4.25, (S) or (R) 6-chloro-N-[5-chloro-1-(1-methylcyclopropyl)-1H-pyrazol-4-yl]-7-[1-(oxetan-3-yl)pyrrolidin-3-yl]quinazolin-2-amine] has an IC50 of 3.09 nM. In the case of `CC1(n2ncc(Nc3ncc4cc(Cl)c(C5CCN(C6COC6)C5)cc4n3)c2Cl)CC1` (single isomer, unassigned) [Ex-4.26, (S) or (R) 6-chloro-N-[5-chloro-1-(1-methylcyclopropyl)-1H-pyrazol-4-yl]-7-[1-(oxetan-3-yl)pyrrolidin-3-yl]quinazolin-2-amine], the IC50 is reported as 4.9 nM. With `Clc1cc2cnc(Nc3cnn(C4CC4)c3Cl)nc2cc1C1CCN(C2COC2)C1` (single isomer, unassigned) [Ex-4.32, (S) or (R) 6-chloro-N-(5-chloro-1-cyclopropyl-1H-pyrazol-4-yl)-7-[1-(oxetan-3-yl)pyrrolidin-3-yl]quinazolin-2-amine] the IC50 was 16.6 nM. `Clc1cc2cnc(Nc3cnn(C4CC4)c3Cl)nc2cc1C1CCN(C2COC2)C1` (single isomer, unassigned) [Ex-4.33, (S) or (R) 6-chloro-N-(5-chloro-1-cyclopropyl-1H-pyrazol-4-yl)-7-[1-(oxetan-3-yl)pyrrolidin-3-yl]quinazolin-2-amine] was tested, and the IC50 was 8.13 nM.
